This passage reports Kd results from US20240287138A1, “CYCLIC PEPTIDES FOR INHIBITING TNF RECEPTOR 1 ACTIVITY” (Merck Sharp & Dohme LLC, priority 2023, published 2024).

Structures are written as SMILES. pKd: −log10 of the molar value. Numbered stars: 1 amine (or outer) side, 2 acyl side, 3 side chain; on linkers, the order of the positions; unused ones are H or OH. Bridge positions count the residues as written; N and C are the ends. Square brackets hold non-standard residues; d marks the D form. Peptide text beside a SMILES is read from it. Trp(βS-Me,7-OMe) = COc1cccc2c([C@H](C)[C@H](N)C(=O)O)c[nH]c12; Ala(indazol-1-yl) = N[C@@H](Cn1ncc2ccccc21)C(=O)O; Trp(7-CN) = N#Cc1cccc2c(C[C@H](N)C(=O)O)c[nH]c12; Trp(7-Cl) = N[C@@H](Cc1c[nH]c2c(Cl)cccc12)C(=O)O; Phe(3-CONH2) = NC(=O)c1cccc(C[C@H](N)C(=O)O)c1; Phe(4-CONH2) = NC(=O)c1ccc(C[C@H](N)C(=O)O)cc1; Phe(4-COOH) = N[C@@H](Cc1ccc(C(=O)O)cc1)C(=O)O; 4Pal(3S-Me) = C[C@@H](c1ccncc1)[C@H](N)C(=O)O; Trp(7-aza) = N[C@@H](Cc1c[nH]c2ncccc12)C(=O)O; Pip(5R-OH) = O=C(O)[C@@H]1CC[C@@H](O)CN1; αMeW = C[C@](N)(Cc1c[nH]c2ccccc12)C(=O)O; X1 = O=C([C@@H]1CC[C@H](N[*:1])C1)[*:2]; Pip(4-aza) = O=C(O)[C@@H]1CNCCN1; 4Pal = N[C@@H](Cc1ccncc1)C(=O)O; Gly(cBu) = N[C@H](C(=O)O)C1CCC1; NMeE = CN[C@@H](CCC(=O)O)C(=O)O; dHyp = O=C(O)[C@H]1C[C@H](O)CN1; Cit = NC(=O)NCCC[C@H](N)C(=O)O; Gly(N-CH2CH2OH) = O=C(O)CNCCO; Ahp(2) = CCCCC[C@H](N)C(=O)O; hSer = N[C@@H](CCO)C(=O)O; αMeS = C[C@](N)(CO)C(=O)O; Nle = CCCC[C@H](N)C(=O)O; Sar = CNCC(=O)O

The assay has as its target T1, human soluble TNFR1 (sTNFR1) (Homo sapiens, UniProt P19438).
T1 construct: made in house; host or cells: Sf21 (baculovirus)
T1 sequence (P19438 with tags, fused parts or gaps): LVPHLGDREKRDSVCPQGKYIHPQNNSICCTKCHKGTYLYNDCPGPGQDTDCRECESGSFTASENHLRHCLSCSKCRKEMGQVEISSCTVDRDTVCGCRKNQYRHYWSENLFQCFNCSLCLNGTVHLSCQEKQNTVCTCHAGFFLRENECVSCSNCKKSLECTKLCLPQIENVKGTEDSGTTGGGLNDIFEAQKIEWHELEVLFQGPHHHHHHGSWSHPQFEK
In words: Human sTNFR1-peptide displacement assay (LanthaScreen Eu TR-FRET binding assay). The essentials:
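Readout is the 665/615 nm TR-FRET ratio (Eu anti-His donor, streptavidin-Alexa647 acceptor), normalized to DMSO and saturating displacer, fit by Morrison-based five-parameter logistic for Kd^app. His-tagged sTNFR1 (1-211) prebound to 100 nM biotinylated peptide SEQ ID NO.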
In general terms: TR-FRET usually uses a lanthanide donor and a delayed reading to cut background.
Broadly, the pKd is the Kd on a negative log10 scale, so that one unit is a factor of ten. A higher pKd goes with a low Kd. Turning to `CCCCC[C@@H]1NC(=O)[C@@H]2CC[C@@H](C2)NC(=O)[C@H]([C@@H](C)c2c[nH]c3c(OC)cccc23)NC(=O)CN(C)C(=O)[C@H](Cc2ccc(C(N)=O)cc2)NC(=O)[C@H](Cc2ccc(C(N)=O)cc2)NC(=O)[C@](C)(CO)NC(=O)[C@H](Cc2c[nH]c3c(C#N)cccc23)NC(=O)[C@H](Cc2ccc(C(=O)O)cc2)NC(=O)[C@H](CC(N)=O)NC(=O)[C@H]2C[C@H](O)CN2C(=O)[C@H](Cc2c[nH]c3ccccc23)NC(=O)[C@H](CCO)NC(=O)[C@H]([C@@H](C)c2ccncc2)NC1=O` [SEQ ID NO. 50] (cyclo([Ahp(2)][4Pal(3S-Me)][hSer]W[dHyp]N[Phe(4-COOH)][Trp(7-CN)][αMeS][Phe(4-CONH2)][Phe(4-CONH2)][Sar][Trp(βS-Me,7-OMe)][X1])), the pKd was 9.70.

The compound `COc1cccc2c([C@H](C)[C@@H]3NC(=O)CN(C)C(=O)[C@H](Cc4cccc(C(N)=O)c4)NC(=O)[C@H](Cc4ccc(C(=O)O)cc4)NC(=O)[C@](C)(CO)NC(=O)[C@H](Cc4c[nH]c5c(Cl)cccc45)NC(=O)[C@H](Cc4ccncc4)NC(=O)[C@H](CC(N)=O)NC(=O)[C@H]4C[C@H](O)CN4C(=O)[C@H](Cc4c[nH]c5ccccc45)NC(=O)[C@@H]4CC[C@@H](O)CN4C(=O)[C@H](Cc4ccncc4)NC(=O)[C@H](CCCNC(N)=O)NC(=O)[C@@H]4CC[C@@H](C4)NC3=O)c[nH]c12` [SEQ ID NO. 54] (cyclo([4Pal][Trp(7-Cl)][αMeS][Phe(4-COOH)][Phe(3-CONH2)][Sar][Trp(βS-Me,7-OMe)][X1][Cit][4Pal][Pip(5R-OH)]W[dHyp]N)) gave a pKd of 9.62.

The compound `CCCC[C@@H]1NC(=O)CSC[C@@H](C(N)=O)NC(=O)[C@](C)(Cc2c[nH]c3ccccc23)NC(=O)CN(C)C(=O)[C@H](Cc2ccc(O)cc2)NC(=O)[C@H](Cc2ccc(C(=O)O)cc2)NC(=O)[C@](C)(CO)NC(=O)[C@H](Cc2c[nH]c3c(Cl)cccc23)NC(=O)[C@H](Cc2ccncc2)NC(=O)[C@H](CC(N)=O)NC(=O)[C@H](CCC(=O)O)N(C)C(=O)[C@H](Cc2c[nH]c3ncccc23)NC(=O)[C@H](C2CCC2)NC(=O)[C@H](Cc2ccncc2)NC1=O` [SEQ ID NO. 56] ({CH2CO}-[Nle][4Pal][Gly(cBu)][Trp(7-aza)][NMeE]N[4Pal][Trp(7-Cl)][αMeS][Phe(4-COOH)]Y[Sar][αMeW]C-NH2; thioether N-14) gave a pKd of 8.70. Compared with the last compound, the pKd is 0.92 log units lower.

For `CCCCC[C@@H]1NC(=O)[C@@H]2CC[C@@H](C2)NC(=O)[C@H]([C@@H](C)c2c[nH]c3c(OC)cccc23)NC(=O)CN(C)C(=O)[C@H](Cc2ccc(C(N)=O)cc2)NC(=O)[C@H](Cc2ccc(C(N)=O)cc2)NC(=O)[C@](C)(CO)NC(=O)[C@H](Cc2c[nH]c3c(C#N)cccc23)NC(=O)[C@H](Cc2ccc(C(=O)O)cc2)NC(=O)[C@H](CC(N)=O)NC(=O)[C@H]2C[C@H](O)CN2C(=O)[C@H](Cc2c[nH]c3ccccc23)NC(=O)[C@H](CCC(N)=O)NC(=O)[C@H]([C@@H](C)c2ccncc2)NC1=O` [SEQ ID NO. 70] (cyclo([Ahp(2)][4Pal(3S-Me)]QW[dHyp]N[Phe(4-COOH)][Trp(7-CN)][αMeS][Phe(4-CONH2)][Phe(4-CONH2)][Sar][Trp(βS-Me,7-OMe)][X1])), the pKd was 9.92. Against the preceding compound, the pKd is 1.22 log units higher.

As to `CCCC[C@@H]1NC(=O)[C@@H]2CC[C@@H](C2)NC(=O)[C@H]([C@@H](C)c2c[nH]c3c(OC)cccc23)NC(=O)CN(C)C(=O)[C@H](Cc2ccc(O)cc2)NC(=O)[C@H](Cc2ccc(C(=O)O)cc2)NC(=O)[C@](C)(CO)NC(=O)[C@H](Cc2c[nH]c3c(Cl)cccc23)NC(=O)[C@H](Cc2ccncc2)NC(=O)[C@H](CC(N)=O)NC(=O)CN(CCO)C(=O)[C@H](Cc2c[nH]c3ccccc23)NC(=O)[C@@H]2CNCCN2C(=O)[C@H](Cc2ccncc2)NC1=O` [SEQ ID NO. 72] (cyclo([4Pal][Trp(7-Cl)][αMeS][Phe(4-COOH)]Y[Sar][Trp(βS-Me,7-OMe)][X1][Nle][4Pal][Pip(4-aza)]W[Gly(N-CH2CH2OH)]N)), the pKd was 10.05.

With `CCCC[C@@H]1NC(=O)[C@@H]2CC[C@@H](C2)NC(=O)[C@H]([C@@H](C)c2c[nH]c3c(OC)cccc23)NC(=O)CN(C)C(=O)[C@H](Cc2ccc(O)cc2)NC(=O)[C@H](Cc2ccc(C(N)=O)cc2)NC(=O)[C@](C)(CO)NC(=O)[C@H](Cc2c[nH]c3c(Cl)cccc23)NC(=O)[C@H](Cc2ccncc2)NC(=O)[C@H](CC(N)=O)NC(=O)[C@H](CCC(=O)O)N(C)C(=O)[C@H](Cn2ncc3ccccc32)NC(=O)[C@@H]2CC[C@@H](O)CN2C(=O)[C@H](Cc2ccncc2)NC1=O` [SEQ ID NO. 74] (cyclo([4Pal][Trp(7-Cl)][αMeS][Phe(4-CONH2)]Y[Sar][Trp(βS-Me,7-OMe)][X1][Nle][4Pal][Pip(5R-OH)][Ala(indazol-1-yl)][NMeE]N)), the pKd was 10.10. The pKd values of the last two compounds are within 0.2 log units of each other.
